Test [1] concerns the target T1, RHOGDI1-mediated extraction of RAC1 (Homo sapiens, UniProt P52565).
T1 construct: made in house; host or cells: RHOGDI1: E. coli; prenylated RAC1: insect cells (TNAO38)
T1 sequence (P52565 1-204): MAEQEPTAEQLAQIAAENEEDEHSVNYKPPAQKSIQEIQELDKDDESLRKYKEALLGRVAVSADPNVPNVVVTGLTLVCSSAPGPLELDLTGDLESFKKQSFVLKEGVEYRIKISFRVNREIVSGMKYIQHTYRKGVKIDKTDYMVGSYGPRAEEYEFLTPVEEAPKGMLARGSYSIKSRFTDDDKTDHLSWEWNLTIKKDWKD
In words: Liposome sedimentation assay: displacement of prenylated GDP-bound RAC1 from liposomes by GST-RHOGDI1. It is filed as biochemical. As to conditions: 50 μM compound. As to the method:
Liposome sedimentation assay
Liposomes were prepared by self-assembly of the lipids (500 μg) containing 20% (w/w) phosphatidylethanolamine, 45% (w/w) phosphatidylcholine, 20% (w/w) phosphatidylserine, 10% (w/w) cholesterol, and 5% (w/w) phosphatidylinositol 4,5-bisphosphate. Liposome assays were performed by mixing, sonicating (20 s with minimal power, 50% off and 50% on) and extruding ([…] filter) the lipids in 300 µl of a buffer, containing 20 mM HEPES-NaOH pH 7.4, 50 mM NaCl, 3 mM DTT, 5 mM MgCl2. 1 µM GerGer-RAC1-GDP was added to the liposomes and incubated for 20 min on ice. 1.5 µM GST‐RHOGDI-1 and the compounds or DMSO were added to the liposome-GerGer-RAC1-GDP complex prior to incubation on ice for 30 min. The samples were centrifuged at 20,000 x g for 30 min at 4 °C. The resulting pellet and supernatant fractions were collected and analyzed by immunoblotting. 10 µl of each sample were loaded on a SDS-PAGE gel for Western blotting. Specific antibodies were used to visualize RAC1, CDC42 and RHOA.
10 µM of GerGer-RAC1-GDP was added to liposomes suspended in flotation assay buffer containing 20 mM HEPES-NaOH pH 7.4, 50 mM M NaCl, 3 mM DTT, 5 mM MgCl2, and incubated for 20 min on ice. The liposomes were prepared by using self-assembling the lipids (500 μg lipids in 300 µl buffer), containing 15% (w/w) phosphatidylethanolamine, 0.5% (w/w) NBD-PE (N-(7-nitrobenz-2-oxa-1,3-diazol-4-yl)-1,2-dihexadecanoyl-sn-glycero-3-phosphoethanolamine, triethylammonium salt), 45% (w/w) phosphatidylcholine, 20% (w/w) phosphatidylserine, 10% (w/w)cholesterol, and 5% (w/w) phosphatidylinositol 4,5-bisphosphate. 15 µM of GST‐RHOGDI-1 and compounds or DMSO was added to liposome-GerGer-RAC1-GDP complex and samples were further incubated on ice for 30 min. The samples were added to 30% (w/v) sucrose solution. […]
The resulting samples were centrifuged at 140000 x g for 1 h at 4 °C. The upper liposome‐ containing phase (detected by fluorescent NDB‐PE) was collected and analyzed by […]

The test system of another test is C3H/10T1/2 cells. Put plainly: Osteoblast differentiation assay (ODA): purmorphamine-induced osteogenesis, alkaline phosphatase luminescence readout. Format: cell-based, mouse. Also noted: key to Osteogenesis IC50: Compounds are marked inactive when no inhibition was observed at the highest test concentration of 30 µM. The settings on record: for IC50: Mus musculus, C3H 10T1/2; for Inhibition of Hh-/purmorphamine-induced osteogenesis (in words): C3H/10T1/2 cells. As to the method:
Supplementary Table S7. Inhibition of osteogenesis assay. C3H10T1/2 cells were incubated with 1.5 µM purmorphamine and compounds or DMSO as a control for 96 h. The activity of alkaline phosphatase was assessed by means of a luminescence readout. Values for cells, which were treated with DMSO and purmorphamine, were set to 100% and data were measured in […]
concentration of 30 µM. All data are mean values of three independent experiments (n = 3) ± […]
Compound Osteogenesis IC50
(1 picture or pasted object on this page, not shown here)
NIH/3T3 cells were obtained from DSMZ, Germany (DSMZ ACC 59) and were cultured in DMEM (high glucose) supplemented with 10% heat-inactivated FCS, 2 mM L -glutamine and 1 mM sodium pyruvate. Shh -LIGHT2 cells (NIH/3T3 cells stably transfected with a Gli-responsive firefly luciferase reporter plasmid and a pRL-TK constituitive Renilla luciferase expression vector)[4] were cultured in the same culturing medium supplemented with 400 μg ml −1 G418 and 150 μg ml −1 Zeocin as selecting agents. The murine osteoblasts C3H/10T1/2 (ATCC CCL-226) were obtained from ATCC, USA and were cultured in DMEM (high glucose) supplemented with 10% heat-inactivated FCS, 6 mM L -glutamine, 1 mM sodium pyruvate. HEK293T cells (ATCC, England) were grown in DMEM containing 10% FBS, 100 U ml −1 penicillin and 0.1 mg ml −1 streptomycin. All cell lines were maintained at 37 °C and 5% CO 2 in a humidified atmosphere. All the cell lines were regularly assayed for mycoplasma and were confirmed to be mycoplasma-free. Transfection of DNA constructs and siRNAs were performed using FuGENE HD (Promega), Lipofectamine® LTX (Invitrogen) and DharmaFECT™ (GE Healthcare) transfection reagent according to the manufacturer’s […]
Osteoblast differentiation assay
The osteoblast differentiation assay was performed by the Compound Management and Screening Center (COMAS) in Dortmund, Germany. C3H/10T1/2 cells were seeded (800 per well) in white 384-well plates or (6000 per well) in 96-well plates. After incubation for 16 h, compounds or DMSO were added to the cells using the acoustic nanoliter dispenser ECHO 520 (Labcyte) and osteogenesis was induced with 1.5 µM purmorphamine. Plates were incubated for 96 h at 37 °C and 5% CO2. Alkaline phosphatase activity was measured by replacing the medium with osteogenesis-lysis buffer (lysis buffer: 100 mM Tris pH 9.5, 250 mM NaCl, 25 mM MgCl2, 1% Triton X-100, sterile filtered) containing 1:100 chemiluminescent substrate CDP-Star® (Promega, 384-well plates: 35 µL, 96-well plates: 50 µL) for one hour in the dark at 25 °C. In 384-well plates, the luminescence was monitored using the Paradigm plate reader (Molecular Devices, USA), whereas Spark plate reader (Tecan, Austria) was used to measure luminescence in 96-well plates. Dose-response analyses were performed for all hit compounds […]
using a three-fold dilution series starting from a concentration of 30 μM. Half-maximal inhibitory concentrations (IC50) were calculated using the Quattro software suite (Quattro Research, Planegg, Germany) or GraphPad Prism 7 (GraphPad, USA).
The effect of test compounds on the viability of C3H/10T1/2 cells was determined by CellTiter-Glo Luminescence cell viability assay (Promega). Cells were treated as described for the osteogenesis assay prior to addition of the CellTiter-Glo® reagent according to manufacturer’s protocol. Compounds causing at least a 50% reduction in the osteogenesis assay and retaining cell viability of at least 80% were considered as hits. Dose-response analyses were performed for all hit compounds using a three-fold dilution series starting from a concentration of 30 μM. Half-maximal inhibitory concentrations (IC50) were calculated using the Quattro software suite (Quattro Research GmbH). […]

The mark [2] stands for this setting: Table S9, purmorphamine-induced, mean, n=3 ± SD, read-out: ODA IC50 ± SD.

The structures appear in SMILES notation. Entries after “also recorded” stand apart in the source; their conditions may differ. Like-named read-outs stand apart in the source and are kept apart here.

A word on the IC50: it is the concentration at which inhibition is half-maximal. On to `COC(=O)C1(C(CC(=O)c2ccccc2)c2ccccc2)N=C(c2ccc(Br)cc2)C2C(=O)N(C)C(=O)C21` (stereo not drawn) [7a], for which, in test [1], the “Inhibition of RHOGDI1-mediated extraction of RAC1 from liposomes (in words)” value (“Inhibition … from liposomes (in words)” below) is reported as “inhibits the extraction of RAC1”. The IC50 with C3H/10T1/2 cells (Table S7, 1.5 µM purmorphamine, 96 h, mean ± SD, n=3, highest test concentration 30 µM, read-out: Osteogenesis IC50) was 1500 ± 200 nM; with C3H/10T1/2 cells (setting [2]), 1300 ± 300 nM.
As to `COC(=O)C1(CCC(=O)c2ccc(F)cc2)N=C(c2ccc(Br)cc2)C2C(=O)N(C)C(=O)C21` (stereo not drawn) [7d], in test [1], the “Inhibition … from liposomes (in words)” value is “did not inhibit extraction of RAC1”. Further, in the test on C3H/10T1/2 cells, the “Inhibition of Hh-/purmorphamine-induced osteogenesis (in words)” value was “abolished activity; also recorded: did not inhibit osteogenesis”. In the test on C3H/10T1/2 cells (Table S7, 1.5 µM purmorphamine, 96 h, mean ± SD, n=3, highest test concentration 30 µM), the “Osteogenesis IC50” value is “inactive”.
Take `COC(=O)C1(C(CC(=O)c2cccnc2)c2ccccc2)N=C(c2ccc(Br)cc2)C2C(=O)N(C)C(=O)C21` (stereo not drawn) [7l]: the “Inhibition … from liposomes (in words)” value in test [1] is listed as “inhibited”. Further, the “Inhibition of Hh-/purmorphamine-induced osteogenesis (in words)” value with C3H/10T1/2 cells was “most potently inhibited”. In addition, the IC50 in the test on C3H/10T1/2 cells (setting [2]) was determined as 1520 ± 220 nM.

The record behind these values is article PMC9313812, “The Pseudo‐Natural Product Rhonin Targets RHOGDI” (Angewandte Chemie (International Ed. in English), 2022).
